Measurements from patent US7601336B2, “Pharmaceutical aerosol composition” (Chiesi Farmaceutici S.p.A., priority 1997, dated 2009).
Like-named read-outs stand apart in the source and are kept apart here.

Legend:
[1] = Aerodynamic particle size distribution by Andersen Cascade Impactor (ACI), ten cumulative actuations, drug on plates by HPLC; assay type: physicochemical
Protocol: The aerosol compositions of the invention described below were prepared by the following method. The required components of a composition were added into a can in the following order: drug, non-volatile additive, absolute ethanol. After crimping of the valve on to the can, the propellant was added through the valve. The weight gain of the can after each component was added was recorded to allow the percentage, by weight, of each component in the formulation to be calculated. The aerodynamic particle size distribution of each formulation was characterized using a Multistage Cascade Impactor according to the procedure described in the European Pharmacopoeia 2nd edition, 1995, part V.5.9.1. pages 15-17. In this specific case an Andersen Cascade Impactor (ACI) was used. Results represented were obtained from ten cumulative actuations or a formulation. Deposition of the drug on each ACI plate was determined by high pressure liquid chromatography. The mass median aerodynamic diameter (MMAD) and geometric standard deviation (GSD) were calculated from plots of the cumulative percentage undersize of drug collected on each ACI plate (probit scale), against the upper cut off diameter for each respective ACI plate (log10 scale). The fine particle dose of each formulation was determined from the mass of drug collected on Stages 2 through to Filter (<5.8 μm) divided by the number of actuations per experiment.

[2] = BDP as a solution in HFA 134a (formulations of EP 0553298), reported in literature; cited from earlier work
[3] = Flunisolide 50 mg/10 ml, ethanol 15.0 ± 0.1%, HFA 134a, menthol 0% (w/w), glycerol 0% (w/w), actuator orifice 0.30 mm
[4] = Flunisolide 50 mg/10 ml, ethanol 15.0 ± 0.1%, HFA 134a, menthol 0.4% (w/w), glycerol 0.9% (w/w), actuator orifice 0.30 mm
[5] = BDP 10 mg/10 ml, ethanol 7.9%, HFA 134a, actuator orifice 0.25 mm
[6] = BDP 10 mg/10 ml, ethanol 12.9-13.0%, HFA 134a, actuator orifice 0.25 mm
[7] = BDP 10 mg/10 ml, ethanol 12.9 ± 0.1% (w/w), HFA 134a, propylene glycol 0.0% (w/w), actuator orifice 0.42 mm
[8] = BDP 10 mg/10 ml, ethanol 12.9 ± 0.1% (w/w), HFA 134a, propylene glycol 1.1% (w/w), actuator orifice 0.42 mm
[9] = BDP 10 mg/10 ml, ethanol 12.9 ± 0.1% (w/w), HFA 134a, propylene glycol 3.2% (w/w), actuator orifice 0.42 mm
[10] = BDP 10 mg/10 ml, ethanol 12.9 ± 0.1% (w/w), HFA 134a, propylene glycol 6.8% (w/w), actuator orifice 0.42 mm
[11] = BDP 10 mg/10 ml, ethanol 13.6%, H2O 0.5%, HFA 134a, actuator orifice 0.33 mm
[12] = BDP 10 mg/10 ml, ethanol 13.7%, H2O 0.1%, HFA 134a, actuator orifice 0.33 mm
[13] = BDP 20 mg/10 ml, ethanol 7.9%, HFA 134a, actuator orifice 0.25 mm
[14] = BDP 20 mg/10 ml, ethanol 13.0%, HFA 134a, actuator orifice 0.25 mm
[15] = BDP 50 mg/10 ml, ethanol 14.9%, H2O 0.1%, HFA 134a, actuator orifice 0.33 mm
[16] = BDP 50 mg/10 ml, ethanol 14.9%, H2O 0.5%, HFA 134a, actuator orifice 0.33 mm
[17] = BDP 50 mg/10 ml, ethanol 14.9 ± 0.1% (w/w), HFA 134a, PEG 0.0% (w/w), actuator orifice 0.33 mm
[18] = BDP 50 mg/10 ml, ethanol 14.9 ± 0.1% (w/w), HFA 134a, PEG 400 1.1% (w/w), actuator orifice 0.33 mm
[19] = BDP 50 mg/10 ml, ethanol 14.9 ± 0.1% (w/w), HFA 134a, PEG 8000 1.0% (w/w), actuator orifice 0.33 mm
[20] = BDP 50 mg/10 ml, ethanol 15.0 ± 0.2% (w/w), HFA 134a, glycerol 0.0% (w/w), actuator orifice 0.25 mm
[21] = BDP 50 mg/10 ml, ethanol 15.0 ± 0.2% (w/w), HFA 134a, glycerol 0.0% (w/w), actuator orifice 0.33 mm
[22] = BDP 50 mg/10 ml, ethanol 15.0 ± 0.2% (w/w), HFA 134a, glycerol 1.0% (w/w), actuator orifice 0.25 mm
[23] = BDP 50 mg/10 ml, ethanol 15.0 ± 0.2% (w/w), HFA 134a, glycerol 1.0% (w/w), actuator orifice 0.33 mm
[24] = BDP 50 mg/10 ml, ethanol 15.0 ± 0.2% (w/w), HFA 134a, glycerol 1.3% (w/w), actuator orifice 0.25 mm
[25] = BDP 50 mg/10 ml, ethanol 15.0 ± 0.2% (w/w), HFA 134a, glycerol 1.3% (w/w), actuator orifice 0.33 mm
[26] = BDP 50 mg/10 ml, ethanol 15.0 ± 0.2% (w/w), HFA 134a, glycerol 1.6% (w/w), actuator orifice 0.25 mm
[27] = BDP 50 mg/10 ml, ethanol 15.0 ± 0.2% (w/w), HFA 134a, glycerol 1.6% (w/w), actuator orifice 0.33 mm
[28] = BDP 50 mg/10 ml, ethanol 15.0 ± 0.2% (w/w), HFA 227 fill to 12 ml, 0% (w/w) glycerol, actuator orifice 0.33 mm
[29] = BDP 50 mg/10 ml, ethanol 15.0 ± 0.2% (w/w), HFA 227 fill to 12 ml, 1.42% (w/w) glycerol, actuator orifice 0.33 mm
[30] = BDP 50 mg/10 ml, ethanol 15.2 ± 0.4% (w/w), HFA 134a, propylene glycol 0.0% (w/w), actuator orifice 0.42 mm
[31] = BDP 50 mg/10 ml, ethanol 15.2 ± 0.4% (w/w), HFA 134a, propylene glycol 0.7% (w/w), actuator orifice 0.42 mm
[32] = BDP 50 mg/10 ml, ethanol 15.2 ± 0.4% (w/w), HFA 134a, propylene glycol 2.8% (w/w), actuator orifice 0.42 mm
[33] = BDP 50 mg/10 ml, ethanol 15.2 ± 0.4% (w/w), HFA 134a, propylene glycol 6.3% (w/w), actuator orifice 0.42 mm
[34] = combination BDP 50 mg/10 ml + Salbutamol base 20 mg/10 ml, ethanol 15.4 ± 0.2% (w/w), HFA 134a, glycerol 0%, oleic acid 0%, actuator exit orifice 0.33 mm
[35] = combination BDP 50 mg/10 ml + Salbutamol base 20 mg/10 ml, ethanol 15.4 ± 0.2% (w/w), HFA 134a, glycerol 0%, oleic acid 0.3%, actuator exit orifice 0.33 mm
[36] = combination BDP 50 mg/10 ml + Salbutamol base 20 mg/10 ml, ethanol 15.4 ± 0.2% (w/w), HFA 134a, glycerol 0%, oleic acid 1.3%, actuator exit orifice 0.30 mm
[37] = combination BDP 50 mg/10 ml + Salbutamol base 20 mg/10 ml, ethanol 15.4 ± 0.2% (w/w), HFA 134a, glycerol 1.2%, oleic acid 0.3%, actuator exit orifice 0.30 mm

## CC1(C)O[C@@H]2C[C@H]3[C@@H]4C[C@H](F)C5=CC(=O)C=C[C@]5(C)[C@H]4[C@@H](O)C[C@]3(C)[C@]2(C(=O)CO)O1 [Flunisolide]
[1]; [3]
  Emitted dose: 217.1 µg
  Fine Particle Dose (FPD): 76.85 µg
  GSD: 2.15
  MMAD: 1.8 µm
[1]; [4]
  Emitted dose: 221.6 µg
  Fine Particle Dose (FPD): 77.84 µg
  GSD: 2.1
  MMAD: 2.9 µm

## CCC(=O)OCC(=O)[C@@]1(OC(=O)CC)[C@@H](C)C[C@H]2[C@@H]3CCC4=CC(=O)C=C[C@]4(C)[C@@]3(Cl)[C@@H](O)C[C@@]21C [BDP, beclomethasone dipropionate]
[1]; [5]
  Fine particle dose: 31.1 µg
  MMAD ± GSD: 0.8 ± 1.8
  Mean emitted dose: 44.7 µg
[1]; [6]
  Fine particle dose: 24.5 µg
  MMAD ± GSD: 0.9 ± 2.0
  Mean emitted dose: 45.1 µg
[1]; [7]
  Fine particle dose: 10.3 µg
  MMAD ± GSD: 1.1 ± 2.3 μm
  Mean emitted dose: 41.8 µg
[1]; [8]
  Fine particle dose: 9.3 µg
  MMAD ± GSD: 1.6 ± 3.4 μm
  Mean emitted dose: 44.0 µg
[1]; [9]
  Fine particle dose: 7.3 µg
  MMAD ± GSD: 2.9 ± 4.1 μm
  Mean emitted dose: 43.6 µg
[1]; [10]
  Fine particle dose: 4.9 µg
  MMAD ± GSD: 4.6 ± 3.9 μm
  Mean emitted dose: 44.9 µg
[1]; [11]
  Fine particle dose: 12.7 µg
  MMAD ± GSD: 1.0 ± 2.1 μm
  Mean emitted dose: 42.9 µg
[1]; [12]
  Fine particle dose: 14.9 µg
  MMAD ± GSD: 1.0 ± 2.2 μm
  Mean emitted dose: 43.2 µg
[1]; [13]
  Fine particle dose: 63.1 µg
  MMAD ± GSD: 1.0 ± 1.8
  Mean emitted dose: 84.8 µg
[1]; [14]
  Fine particle dose: 46.2 µg
  MMAD ± GSD: 1.0 ± 1.9
  Mean emitted dose: 87.6 µg
[1]; [15]
  Fine particle dose: 67.4 µg
  MMAD ± GSD: 1.8 ± 2.2 μm
  Mean emitted dose: 222.1 µg
[1]; [16]
  Fine particle dose: 60.2 µg
  MMAD ± GSD: 1.7 ± 2.2 μm
  Mean emitted dose: 215.1 µg
[1]; [17]
  Fine particle dose: 67.4 µg
  MMAD ± GSD: 1.8 ± 2.2 μm
  Mean emitted dose: 222.1 µg
[1]; [18]
  Fine particle dose: 55.6 µg
  MMAD ± GSD: 2.5 ± 2.2 μm
  Mean emitted dose: 218.9 µg
[1]; [19]
  Fine particle dose: 55.6 µg
  MMAD ± GSD: 2.5 ± 2.2 μm
  Mean emitted dose: 215.0 µg
[1]; [20]
  Fine particle dose: 105.9 µg
  MMAD ± GSD: 1.4 ± 1.9 μm
  Mean emitted dose: 205.8 µg
[1]; [21]
  Fine particle dose: 67.4 µg
  MMAD ± GSD: 1.8 ± 2.2 μm
  Mean emitted dose: 222.1 µg
[1]; [22]
  Fine particle dose: 94.4 µg
  MMAD ± GSD: 2.4 ± 2.0 μm
  Mean emitted dose: 218.3 µg
[1]; [23]
  Fine particle dose: 55.9 µg
  MMAD ± GSD: 2.8 ± 2.2 μm
  Mean emitted dose: 227.9 µg
[1]; [24]
  Fine particle dose: 100.3 µg
  MMAD ± GSD: 2.6 ± 2.0 μm
  Mean emitted dose: 220.8 µg
[1]; [25]
  Fine particle dose: 54.3 µg
  MMAD ± GSD: 3.1 ± 2.3 μm
  Mean emitted dose: 228.4 µg
[1]; [26]
  Fine particle dose: 96.6 µg
  MMAD ± GSD: 2.7 ± 2.0 μm
  Mean emitted dose: 228.0 µg
[1]; [27]
  Fine particle dose: 50.9 µg
  MMAD ± GSD: 3.1 ± 2.3 μm
  Mean emitted dose: 231.7 µg
[1]; [28]
  FPD: 62.1 µg
  GSD: 2.6
  MMAD: 2.2 μm
  Mean emitted dose: 221.25 µg
[1]; [29]
  FPD: 43.5 µg
  GSD: 2.4
  MMAD: 4.1 μm
  Mean emitted dose: 230.5 µg
[1]; [30]
  Fine particle dose: 41.6 µg
  MMAD ± GSD: 1.7 ± 2.3 μm
  Mean emitted dose: 209.1 µg
[1]; [31]
  Fine particle dose: 41.1 µg
  MMAD ± GSD: 2.1 ± 2.7 μm
  Mean emitted dose: 218.4 µg
[1]; [32]
  Fine particle dose: 32.1 µg
  MMAD ± GSD: 3.3 ± 3.2 μm
  Mean emitted dose: 204.2 µg
[1]; [33]
  Fine particle dose: 25.2 µg
  MMAD ± GSD: 4.4 ± 3.8 μm
  Mean emitted dose: 242.6 µg
[1]; [34]
  Emitted dose: 208.9 µg
  FPD: 67.8 µg
  GSD: 2.4
  MMAD: 1.7 μm
[1]; [35]
  Emitted dose: 212.7 µg
  FPD: 60.6 µg
  GSD: 2.3
  MMAD: 2.2 μm
[1]; [36]
  Emitted dose: 212.5 µg
  FPD: 58.5 µg
  GSD: 2.2
  MMAD: 2.4 μm
[1]; [37]
  Emitted dose: 210.8 µg
  FPD: 63.3 µg
  GSD: 2.1
  MMAD: 2.9 μm
[2]
  MMAD: 1.1 μm
